In the experiment the target is T1, Avi-tagged FL MALT-1 (Homo sapiens, UniProt Q9UDY8).
T1 construct: Avi-tagged FL MALT-1 (Pharmaron, stored at −70° C.); Avi-tag; purchased Pharmaron
T1 sequence (Q9UDY8 1-824): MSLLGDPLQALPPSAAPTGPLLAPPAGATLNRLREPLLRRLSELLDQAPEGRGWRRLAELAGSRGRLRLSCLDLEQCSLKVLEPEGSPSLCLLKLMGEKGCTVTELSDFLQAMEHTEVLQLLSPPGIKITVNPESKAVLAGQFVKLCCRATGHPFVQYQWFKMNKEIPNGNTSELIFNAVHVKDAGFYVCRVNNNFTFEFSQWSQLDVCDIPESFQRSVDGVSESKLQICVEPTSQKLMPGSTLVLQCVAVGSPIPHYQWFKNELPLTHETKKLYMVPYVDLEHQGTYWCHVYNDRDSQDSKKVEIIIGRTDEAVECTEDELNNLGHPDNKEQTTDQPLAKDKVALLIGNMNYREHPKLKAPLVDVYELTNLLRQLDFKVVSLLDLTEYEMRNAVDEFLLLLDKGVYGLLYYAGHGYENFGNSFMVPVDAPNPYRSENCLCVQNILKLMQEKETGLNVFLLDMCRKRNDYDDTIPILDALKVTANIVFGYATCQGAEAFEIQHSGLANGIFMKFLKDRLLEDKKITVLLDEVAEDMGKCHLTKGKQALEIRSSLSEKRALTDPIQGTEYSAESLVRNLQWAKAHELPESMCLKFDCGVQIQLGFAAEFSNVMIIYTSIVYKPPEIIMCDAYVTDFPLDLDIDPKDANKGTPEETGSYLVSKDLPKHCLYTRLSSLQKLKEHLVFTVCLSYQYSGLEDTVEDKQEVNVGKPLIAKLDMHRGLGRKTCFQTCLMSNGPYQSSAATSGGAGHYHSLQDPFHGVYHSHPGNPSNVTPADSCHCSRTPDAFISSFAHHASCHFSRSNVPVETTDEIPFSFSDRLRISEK
Kind of experiment: MALT-1 Fluorogenic Peptide Cleavage Assay (MALT1 inhibition assay). In kind it is biochemical. The conditions noted are these: Ac-LRSR-AMC peptide substrate; 30 min pre-incubation, 90 min reaction at room temperature; fluorescence. Here is the method: Inhibition of MALT1 activity by a small molecule was evaluated using MALT-1 Fluorogenic Peptide Cleavage Assay. The assay utilizes a quenched AMC-labelled peptide that contains the MALT-1 recognition sequence and cleavage site (LRSR). MALT-1 mediated cleavage of the peptide relieves the quenching and leads to an increase in fluorescence at excitation (342 nm) and emission (441 nm).
The following reagents were obtained commercially and used to prepare standard reagent formulations as further described below: N-2-hydroxyethylpiperazine-N-2-ethane sulfonic acid (HEPES) (1 M, pH 7.5, stored at 4° C.), sodium citrate (stored at RT), tris(2-carboxyethyl)phosphine hydrochloride (T-CEP) (500 mM, stored at −20° C.), ethylenediaminetetraacetic acid (EDTA) (500 mM, stored at RT), dimethylsulfoxide (DMSO, stored at RT), 3-[(3-cholamidopropyl)dimethylammonio]-1-propane sulphate (CHAPS) (stored at RT), dimethylsulfoxide (DMSO), DMSO (Fisher Scientific, stored at RT), Avi-tagged FL MALT-1 (Pharmaron, stored at −70° C.), Ac-LRSR-AMC Peptide (SM Biochemicals, stored at −20° C.), and ultrapure water (MILLI-Q®).
The standard reagent formulations used in this assay were prepared and stored as follows. A 1.1 M solution of sodium citrate (161.3 g, 500 mL) was prepared and stored at room temperature. A 10% (w/v) CHAPS solution (2.0 g, 20 mL) was prepared and stored at 4° C. A 500 mM HEPES solution having pH of 6.89 was prepared from 200 mL of a 1 M HEPES solution having a pH of 7.5 using concentrated hydrochloric acid and brought to a final volume of 400 mL with MILLI-Q© H2O. The substrate, 10 mM Ac-LRSR-AMC Peptide, was prepared (10 mg, 1.370 mL DMSO) and stored at −20° C.
Compounds were plated to provide a 2% DMSO final concentration using a ProxiPlate-384 Plus F Black 384-shallow well microplate. The assay-ready plates were equilibrated to room temperature. A reaction buffer (30 mL total volume) was prepared by combining HEPES (pH 6.89, 25 mM, 1.5 mL), sodium citrate (660 mM, 18.0 mL), T-CEP (1 mM, 0.06 mL), EDTA (0.1 mM, 0.06 mL), CHAPS (0.05%, 0.15 mL), DMSO (2%, 0.6 mL), and MILLI-Q® H2O (10.23 mL; 9.63 mL when backfilled to 2% DMSO) followed by thorough mixing.
MALT-1 was thawed and kept on ice. Peptide substrate was thawed on the bench under ambient conditions. A MALT-1 enzyme working stock was prepared from Avi-tagged FL MALT-1 (40 nM in a prepared reagent volume of […]) and the reaction buffer (13.0 mL). MALT1 working stock (5 μL) was added to each well of the microplate. MALT-1 was pre-incubated with compounds for 30 minutes at room temperature.
Two substrate working stocks (Km and 10×Km) were prepared. The 1×Km substrate was prepared from Ac-LRSR-AMC Peptide (50 μM in a prepared reagent volume of […]) and the reaction buffer (6.965 mL). The 10×Km substrate was prepared from Ac-LRSR-AMC Peptide ([…] in a prepared reagent volume of 196.0 μL) and the reaction buffer (6.804 mL). The reaction was initiated by the addition of substrate working stock (5 μL, 50 μM) to Km plates and the addition of substrate working stock (5 μL 280 μM) to 10×Km plates. The plates were covered and incubated on the bench at room temperature for 90 minutes.
Fluorescence intensity was determined using a CLARIOstar microplate reader (BMG LABTECH) using the optimised AMC mode. Before taking readings, a 70% gain was applied on the neutral control well. Compound data were normalised to % Inhibition and used to plot sigmoidal concentration response curves to yield various parameters including IC50.

Among the data in patent US20260124222A1, “ISOTHIAZOLYLCARBOXAMIDE COMPOUNDS AND THEIR USE IN THERAPY” (HOTSPOT THERAPEUTICS, INC., priority 2022, published 2026) are IC50 values, retold here.

Each structure is given as a SMILES string.

A word on the IC50: it is the midpoint of a concentration-inhibition curve. `O=C(Nc1ccnc(C(F)(F)F)c1)c1snc(-c2ccccc2C(F)(F)F)c1C1CC1` [I-164, 4-cyclopropyl-3-(2-(trifluoromethyl)phenyl)-N-(2-(trifluoromethyl)pyridin-4-yl)isothiazole-5-carboxamide] came in with a 50% inhibitory concentration (IC50) not above 400 nM.

In the case of `Cn1cc2c(-c3nsc(C(=O)Nc4cc(C(F)(F)F)ccn4)c3C3CC3)cccc2n1` [I-209, 4-cyclopropyl-3-(2-methylindazol-4-yl)-N-[4-(trifluoromethyl)pyridine-2-yl]-1,2-thiazole-5-carboxamide], the IC50 was more than 2500 nM. `Cc1cc(NC(=O)c2snc([C@H]3CCOC3)c2C2CC2)ccn1` [I-202, 4-cyclopropyl-N-(2-methylpyridin-4-yl)-3-[(3R)-oxolan-3-yl]-1,2-thiazole-5-carboxamide] registered a half-inhibitory concentration (IC50) of more than 2500 nM. The result for `CN(C)C(=O)c1ccc(NC(=O)c2snc(-c3ccccc3)c2C2CC2)cc1C(F)(F)F` [I-55, 4-CYCLOPROPYL-N-(4-(DIMETHYL-CARBAMOYL)-3-(TRIFLUOROMETHYL) PHENYL)-3-PHENYLISOTHIAZOLE-5-CARBOXAMIDE] reads not above 400 nM; that for `Cn1nc2cccc(-c3nsc(C(=O)Nc4cnc(-n5nccn5)c(C#N)c4)c3C3CC3)c2n1` [I-126], not above 400 nM; that for `CC(C)c1nsc(C(=O)Nc2cnc(-n3nccn3)c(C#N)c2)c1C1CC1` [I-56, N-(5-CYANO-6-(2H-1,2,3-TRIAZOL-2-YL) PYRIDIN-3-YL)-4-CYCLOPROPYL-3-ISOPROPYLISOTHIAZOLE-5-CARBOXAMIDE], not above 400 nM. In the case of `COc1cccc(-c2nsc(C(=O)Nc3ccnc(C(F)(F)F)c3)c2C2CC2)c1` [I-156, 4-cyclopropyl-3-(3-methoxyphenyl)-N-(2-(trifluoromethyl)pyridin-4-yl)isothiazole-5-carboxamide], the IC50 is not above 400 nM.

For the compound `N#Cc1cc(NC(=O)c2snc(C3CCOCC3)c2C(F)(F)F)cnc1-n1nccn1` [I-34], the IC50 is not above 400 nM. Then `O=C(Nc1cncc(C(F)(F)F)c1)c1snc(-c2cccc3ncccc23)c1C1CC1` [I-119], with not above 400 nM. Then `O=C(Nc1ccnc(C(F)(F)F)c1)c1snc(-c2ccc(F)cc2)c1C1CC1` [I-172, 4-cyclopropyl-3-(4-fluorophenyl)-N-[2-(trifluoromethyl)pyridin-4-yl]-1,2-thiazole-5-carboxamide], with not above 400 nM; and `O=C(Nc1ccc(C(=O)N2CC(O)C2)c(Cl)c1)c1snc(-c2cccc3c(=O)[nH]ccc23)c1C1CC1` [I-198, N-(3-chloro-4-(3-hydroxyazetidine-1-carbonyl)phenyl)-4-cyclopropyl-3-(1-oxo-1,2-dihydroisoquinolin-5-yl)isothiazole-5-carboxamide], with not above 400 nM.

As to `COc1ccncc1-c1nsc(C(=O)Nc2ccnc(C(F)(F)F)c2)c1C1CC1` [I-170, 4-cyclopropyl-3-(4-methoxypyridin-3-yl)-N-(2-(trifluoromethyl)pyridin-4-yl)isothiazole-5-carboxamide], the 50% inhibitory concentration (IC50) is not above 400 nM. `O=C(Nc1ccnc(C(F)(F)F)c1)c1snc(-c2ccc3ncsc3c2)c1C1CC1` [I-153, 3-(1,3-benzothiazol-6-yl)-4-cyclopropyl-N-[2-(trifluoromethyl)pyridin-4-yl]-1,2-thiazole-5-carboxamide] had a concentration for half-maximal inhibition (IC50) not above 400 nM. The result for `O=C(Nc1ccc(C(=O)N2CCOCC2)c(Cl)c1)c1snc(-c2ccccc2)c1C1CC1` [I-22, N-(3-CHLORO-4-(MORPHOLINE-4-CARBONYL) PHENYL)-4-CYCLOPROPYL-3-PHENYLISOTHIAZOLE-5-CARBOXAMIDE] reads not above 400 nM. Then `O=C(Nc1ccnc(C(F)(F)F)c1)c1snc(-c2cccc3ncsc23)c1C1CC1` [I-103], with not above 400 nM. Then `Cc1c(-c2nsc(C(=O)Nc3ccnc(C(F)(F)F)c3)c2C2CC2)cnn1C` [I-183, 4-cyclopropyl-3-(1,5-dimethyl-1H-pyrazol-4-yl)-N-(2-(trifluoromethyl)pyridin-4-yl)isothiazole-5-carboxamide], with not above 400 nM.

On to `CN(C)c1nsc(C(=O)Nc2ccnc(C(F)(F)F)c2)c1C1CC1` [I-125], for which the IC50 is more than 2500 nM. Then `CNC(=O)c1cccc(-c2nsc(C(=O)Nc3ccnc(C(F)(F)F)c3)c2C2CC2)c1` [I-193, 4-cyclopropyl-3-(3-(methylcarbamoyl)phenyl)-N-(2-(trifluoromethyl)pyridin-4-yl)isothiazole-5-carboxamide], with 400 to 1000 nM. Then `Cn1cc2c(-c3nsc(C(=O)Nc4ccc(C(=O)N5CC(O)C5)c(Cl)c4)c3C3CC3)cccc2n1` [I-203, N-(3-chloro-4-(3-hydroxyazetidine-1-carbonyl)phenyl)-4-cyclopropyl-3-(2-methyl-2H-indazol-4-yl)isothiazole-5-carboxamide], with 400 to 1000 nM; and `O=C(Nc1ccnc(C(F)(F)F)c1)c1snc(-c2ccn3ncnc3c2)c1C1CC1` [I-151, 3-([1,2,4]triazolo[1,5-a]pyridin-7-yl)-4-cyclopropyl-N-(2-(trifluoromethyl)pyridin-4-yl)isothiazole-5-carboxamide], with 400 to 1000 nM; and `N#Cc1c(-c2ccccc2)nsc1C(=O)Nc1cnc(-n2nccn2)c(Cl)c1` [I-4, N-(5-CHLORO-6-(2H-1,2,3-TRIAZOL-2-YL)PYRIDIN-3-YL)-4-CYANO-3-PHENYLISOTHIAZOLE-5-CARBOXAMIDE], with 400 to 1000 nM. Then `Cc1ccncc1-c1nsc(C(=O)Nc2ccnc(C(F)(F)F)c2)c1C1CC1` [I-173, 4-cyclopropyl-3-(4-methylpyridin-3-yl)-N-(2-(trifluoromethyl)pyridin-4-yl)isothiazole-5-carboxamide], with not above 400 nM.

`Cn1cccc(-c2nsc(C(=O)Nc3cnc(-n4nccn4)c(C#N)c3)c2C(F)(F)F)c1=O` [I-108]: the half-inhibitory concentration (IC50) was in the range of 1000 to 2500 nM. The result for `O=C(Nc1ccnc(C(F)(F)F)c1)c1snc(-c2cccc3scnc23)c1C1CC1` [I-159, 3-(1,3-benzothiazol-4-yl)-4-cyclopropyl-N-[2-(trifluoromethyl)pyridin-4-yl]-1,2-thiazole-5-carboxamide] reads not above 400 nM.

For the compound `CC(C)c1nsc(C(=O)Nc2cnc(-n3nccn3)c(C#N)c2)c1C(F)(F)F` [I-38, N-(5-CYANO-6-(2H-1,2,3-TRIAZOL-2-YL) PYRIDIN-3-YL)-3-ISOPROPYL-4-(TRIFLUOROMETHYL)ISOTHIAZOLE-5-CARBOXAMIDE], the IC50 is not above 400 nM.
